What was measured:
Type in all cases: in vivo
[1] = test system: Abutilon theophrasti (ABUTH); assay: Herbicidal pre-emergence action, 1280 g/ha (Table A1); settings: visual grading after ca. 3 weeks vs untreated controls
How it was run: (§1)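 Compounds were formulated as WP or EC and sprayed onto the covering soil of freshly sown pots (sandy loam) in 600 L water/ha with 0.5% additive. Pots were kept in a greenhouse, and damage was scored visually after ca. 3 weeks as % effect versus untreated controls (100% = dead).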

[2] = test system: Kochia scoparia (KCHSC); assay: Herbicidal pre-emergence action, 1280 g/ha (Table A4); settings: visual grading after ca. 3 weeks vs untreated controls
How it was run: as §1

[3] = test system: Lolium rigidum (LOLRI); assay: Herbicidal pre-emergence action, 1280 g/ha (Table A5); settings: visual grading after ca. 3 weeks vs untreated controls
How it was run: as §1

[4] = test system: Matricaria inodora (MATIN); assay: Herbicidal pre-emergence action, 1280 g/ha (Table A6); settings: visual grading after ca. 3 weeks vs untreated controls
How it was run: as §1

[5] = test system: Stellaria media (STEME); assay: Herbicidal pre-emergence action, 1280 g/ha (Table A9); settings: visual grading after ca. 3 weeks vs untreated controls
How it was run: as §1

[6] = test system: Abutilon theophrasti (ABUTH); assay: Herbicidal post-emergence action, 1280 g/ha (Table B1); settings: visual assessment after ca. 3 weeks vs untreated controls
How it was run: (§2)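 Visual percent damage relative to untreated plants (100% dead, 0% no effect) was rated about 3 weeks after treatment in the greenhouse. WP or EC preparations with 0.5% additive were applied at 600 L water/ha onto single-leaf-stage plants grown 2–3 weeks in sandy loam pots.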

[7] = test system: Kochia scoparia (KCHSC); assay: Herbicidal post-emergence action, 1280 g/ha (Table B4); settings: visual assessment after ca. 3 weeks vs untreated controls
How it was run: as §2

[8] = test system: Stellaria media (STEME); assay: Herbicidal post-emergence action, 1280 g/ha (Table B9); settings: visual assessment after ca. 3 weeks vs untreated controls
How it was run: as §2

[9] = test system: Veronica persica (VERPE); assay: Herbicidal post-emergence action, 1280 g/ha, VERPE; settings: visual grading vs untreated controls
How it was run: (§3)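 Visual rating ~3 weeks after treatment: 0% equals untreated control, 100% means plants died. Treatment was a 1280 g/ha foliar spray (600 L water/ha, 0.5% additive, WP or EC formulation) applied to single-leaf-stage plants grown 2–3 weeks in sandy loam under controlled conditions.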

[10] = test system: Amaranthus retroflexus (AMARE); assay: Herbicidal post-emergence action, 1280 g/ha, AMARE; settings: visual grading vs untreated controls
How it was run: as §3

[11] = test system: Matricaria inodora (MATIN); assay: Herbicidal pre-emergence action, 320 g/ha (Table C3); settings: visual grading after ca. 3 weeks vs untreated controls
Text: (§4) Seeds of mono- and dicotyledonous weed plants were sown in plastic pots (double sowings with one species of mono- and one species of dicotyledonous weed plants per pot), in sandy loam, and covered with soil. The compounds according to the invention, formulated in the form of wettable powders (WP) or as emulsifiable concentrates (EC), were applied to the surface of the covering soil as an aqueous suspension or as an emulsion, with the addition of 0.5% of an additive, at an application rate of 600 litres of water per hectare (converted). Following treatment, the pots were placed in a greenhouse and kept under optimum growth conditions for the test plants. The visual grading of the damage to the test plants was carried out after ca. 3 weeks in comparison to untreated controls (herbicidal effect in percent (%): 100% effect=plants have died, 0% effect=as control plants). Tables C1 to C6 below, show the effects of selected compounds of the general formula (I) according to Table 1 on various harmful plants using an application rate corresponding to 320 g/ha obtained by the experimental procedure mentioned above.

[12] = test system: Stellaria media (STEME); assay: Herbicidal pre-emergence action, 320 g/ha, STEME; settings: visual grading after ca. 3 weeks
How it was run: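 Percent herbicidal effect, graded by eye about 3 weeks after treatment relative to untreated pots (0% matching controls, 100% dead plants). Application of 320 g/ha onto soil covering freshly sown seeds, as aqueous suspension or emulsion plus 0.5% additive at 600 L/ha; pots kept in greenhouse.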

[13] = test system: Abutilon theophrasti (ABUTH); assay: Herbicidal post-emergence action, 320 g/ha, ABUTH; settings: visual grading after ca. 3 weeks
How it was run: (§5)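 Weeds grown in sandy loam were sprayed post-emergence at the single-leaf stage, 2–3 weeks after sowing. Compounds were formulated as WP or EC with 0.5% additive and applied at 320 g/ha in 600 L water/ha. After ~3 weeks in the greenhouse, damage was scored visually as % versus untreated controls (100% = dead).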

[14] = test system: Stellaria media (STEME); assay: Herbicidal post-emergence action, 320 g/ha, STEME; settings: visual grading after ca. 3 weeks
How it was run: as §5

[15] = test system: Amaranthus retroflexus (AMARE); assay: Herbicidal post-emergence action, 320 g/ha, AMARE; settings: visual grading after ca. 3 weeks
How it was run: as §5

[16] = test system: Poa annua (POAAN); assay: Herbicidal pre-emergence action, 1280 g/ha (Table A7); settings: visual grading after ca. 3 weeks vs untreated controls
How it was run: as §1

[17] = test system: Amaranthus retroflexus (AMARE); assay: Herbicidal pre-emergence action, 1280 g/ha (Table A11); settings: visual grading after ca. 3 weeks vs untreated controls
How it was run: as §1

[18] = test system: Lolium rigidum (LOLRI); assay: Herbicidal post-emergence action, 1280 g/ha (Table B5); settings: visual assessment after ca. 3 weeks vs untreated controls
How it was run: as §2

[19] = test system: Matricaria inodora (MATIN); assay: Herbicidal post-emergence action, 1280 g/ha (Table B6); settings: visual assessment after ca. 3 weeks vs untreated controls
How it was run: as §2

[20] = test system: Lolium rigidum (LOLRI); assay: Herbicidal pre-emergence action, 320 g/ha (Table C2); settings: visual grading after ca. 3 weeks vs untreated controls
How it was run: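 Herbicidal effect was graded by eye roughly 3 weeks after treatment, from 0% (as control) to 100% (dead plants). Weed seeds sown in sandy loam were covered and sprayed on the soil surface with WP/EC suspensions or emulsions, 0.5% additive, 600 L water/ha, then kept in a greenhouse.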

[21] = test system: Amaranthus retroflexus (AMARE); assay: Herbicidal pre-emergence action, 320 g/ha, AMARE; settings: visual grading after ca. 3 weeks
Text: as §4, with “plants).” for “plants). Tables C1 to C6 below, show the effects of selected compounds of the general formula (I) according to Table 1 on various harmful plants using an application rate corresponding to 320 g/ha obtained by the experimental procedure mentioned above.”
Tables C1 to C6 below, show the effects of selected compounds of the general formula (I) according to Table 1 on various harmful plants using an application rate corresponding to 320 g/ha obtained by the experimental procedure mentioned above.

[22] = test system: Lolium rigidum (LOLRI); assay: Herbicidal post-emergence action, 320 g/ha, LOLRI; settings: visual grading after ca. 3 weeks
Text: (§6) Seeds of mono- and dicotyledonous weed plants were sown in plastic pots (double sowings with one species of mono- and one species of dicotyledonous weed plants per pot), in sandy loam, covered with soil and grown under controlled growth conditions. 2 to 3 weeks after sowing, the test plants were sprayed in the single-leaf stage. The compounds according to the invention, formulated in the form of wettable powders (WP) or as emulsifiable concentrates (EC), were sprayed onto the green plant parts as an aqueous suspension or as an emulsion, with the addition of 0.5% of an additive, at an application rate of 600 litres of water per hectare (converted). The test plants were placed in the greenhouse for ca. 3 weeks under optimum growth conditions, and then the effect of the preparations was assessed visually in comparison with untreated controls (herbicidal effect in percent (%): 100% effect=plants have died, 0% effect=as control plants).
Tables D1 to D8 below, show the effects of selected compounds of the general formula (I) according to Table 1 on various harmful plants using an application rate corresponding to 320 g/ha obtained by the experimental procedure mentioned above.

[23] = test system: Setaria viridis (SETVI); assay: Herbicidal pre-emergence action, 1280 g/ha (Table A8); settings: visual grading after ca. 3 weeks vs untreated controls
How it was run: as §1

[24] = test system: Kochia scoparia (KCHSC); assay: Herbicidal post-emergence action, 320 g/ha, KCHSC; settings: visual grading after ca. 3 weeks
How it was run: as §5

[25] = test system: Matricaria inodora (MATIN); assay: Herbicidal post-emergence action, 320 g/ha, MATIN; settings: visual grading after ca. 3 weeks
How it was run: as §5

[26] = test system: Setaria viridis (SETVI); assay: Herbicidal post-emergence action, 1280 g/ha (Table B8); settings: visual assessment after ca. 3 weeks vs untreated controls
Text: as §6, with “plants). Tables B1 to B11 below, show the effects of selected compounds of the general formula (I) according to Table 1 on various harmful plants using an application rate corresponding to 1280 g/ha obtained by the experimental procedure mentioned above.” for “plants).”

Compound | herbicidal effect ABUTH [1] | herbicidal effect LOLRI [3] | herbicidal effect MATIN [4] | herbicidal effect STEME [5] | herbicidal effect KCHSC [7] | herbicidal effect STEME [8] | herbicidal effect VERPE [9] | herbicidal effect AMARE [10] | herbicidal effect MATIN [11] | herbicidal effect STEME [12] | herbicidal effect STEME [14] | herbicidal effect AMARE [15] | herbicidal effect POAAN [16] | herbicidal effect AMARE [17] | herbicidal effect LOLRI [18] | herbicidal effect MATIN [19] | herbicidal effect LOLRI [20] | herbicidal effect AMARE [21] | herbicidal effect SETVI [23] | further results
Cc1nn(C)c(=O)c(Oc2cc(Cl)cc(Cl)c2)c1O [Example I-027] | 100% | 100% | 100% | 100% | 90% | 90% | 90% | 100% | 100% | 100% | 90% | 90% |  |  |  |  |  |  |  | herbicidal effect KCHSC [2]: 90%; herbicidal effect ABUTH [6]: 90%; herbicidal effect ABUTH [13]: 90%
Cc1nn(C)c(=O)c(Oc2ccccc2C#N)c1O [Example I-028] |  |  | 100% | 100% |  |  |  | 90% | 100% | 100% |  |  | 100% |  |  |  |  |  |  | 
Cc1nn(C)c(=O)c(Oc2cc(Cl)ccc2Cl)c1OC(=O)C(C)C [Example I-095] |  | 100% | 90% | 100% |  | 90% |  | 90% |  | 90% | 90% |  |  | 100% | 90% | 90% | 90% | 90% |  | herbicidal effect LOLRI [22]: 90%
Cc1nn(C)c(=O)c(Oc2ccccc2C2CC2)c1O [Example I-014] | 90% | 100% | 100% | 100% | 100% | 100% | 90% | 90% |  | 100% | 100% | 90% | 90% | 100% | 90% | 90% |  | 90% | 90% | herbicidal effect KCHSC [24]: 100%; herbicidal effect MATIN [25]: 90%
Cc1nn(C)c(=O)c(Oc2cc(Cl)ccc2Br)c1OC(=O)C(C)C [Example I-092] | 90% | 100% | 100% | 100% |  | 100% |  | 90% |  | 90% | 90% |  |  | 100% | 90% | 90% | 100% | 90% | 90% | herbicidal effect SETVI [26]: 90%
